{
  "source": "patent US6814968B1",
  "about": "“Inhibition of viral infection and spread with viral and RhoA-derived peptides” (priority 1998, dated 2004)",
  "key": {"RSV [1]": {"system": "RSV", "assay": "RSV plaque inhibition assay: peptide pre-incubated with RSV, added to HEp-2 cells", "assay_type": "cell-based, respiratory syncytial virus (A2 strain)", "conditions": "3 days; for plaque formation: peptide 5 mg/ml and 10 mg/ml incubated 1 h with RSV, vs PBS controls"}, "RSV [2]": {"system": "RSV", "assay": "Cell-to-cell spread / syncytium formation of RSV in HEp-2 monolayers, peptide added to cells", "assay_type": "cell-based, respiratory syncytial virus"}, "RSV [3]": {"system": "RSV", "assay": "RSV infection of BALB/c mice, intranasal peptide treatment", "assay_type": "in vivo"}, "[4]": {"system": "parainfluenza virus 3 (PIV3)", "assay": "Syncytium formation by parainfluenza virus 3 in HEp-2 cells", "assay_type": "cell-based", "protocol": "RhoA77-95 was also added to HEp-2 cells in conjunction with parainfluenza virus 3 (PIV3) as infectious agent, as well as MT-2 cells, in conjunction with human immunodeficiency virus 1 (HIV-1) as infectious agent. Both viruses are known to cause the formation of syncytia during infection."}, "HIV": {"system": "HIV", "assay": "MAGI cell assay of HIV entry", "assay_type": "cell-based", "conditions": "β-galactosidase activity as endpoint"}, "RSV [5]": {"system": "RSV", "assay_type": "cell-based, respiratory syncytial virus", "conditions": "protein added to RSV prior to infection of HEp-2 cells"}, "[6]": {"conditions": "10 amino acid peptides added to HEp-2 cell medium"}, "[7]": {"conditions": "500 μg intranasally at the time of RSV challenge, 10^7 pfu RSV"}, "[8]": {"conditions": "500 μg intranasally on day 4 after RSV infection, vs PBS-treated controls"}},
  "note": "Entries after “also recorded” stand apart in the source; their conditions may differ.",
  "data": [
    {"substance": "RhoA67-85: 19 amino acid peptide comprising RhoA amino acids 67-85 (DRLRPLSYPDTDVILMCFS; UniProt P61586 67-85, looked up, fragment)", "values": [
      {"measurement": "plaque formation", "setting": "RSV [1]", "value": "no inhibition"},
      {"measurement": "destruction of infected MT-2 cells", "setting": "HIV-1", "value": "completely destroyed by day 14"},
      {"measurement": "syncytium formation by HIV-1", "setting": "HIV-1", "value": "visible syncytia by day 4"}
    ]},
    {"substance": "RhoA77-86: 10 amino acid peptide, RhoA residues 77-86 (TDVILMCFSI; UniProt P61586 77-86, looked up, fragment)", "values": [
      {"measurement": "syncytium formation", "setting": "RSV [2]; [6]", "value": "did not block"}
    ]},
    {"substance": "RhoA77-95: 19 amino acid peptide comprising the sequence of amino acids 77-95 of the RhoA protein (TDVILMCFSIDSPDSLENI; UniProt P61586 77-95, looked up, fragment)", "values": [
      {"measurement": "antigen-positive cells by immunoperoxidase staining", "setting": "RSV [1]; RSV-specific antibody", "value": "no antigen-positive cells were found"},
      {"measurement": "plaque formation", "setting": "RSV [1]", "value": "completely blocked; also recorded: inhibited; also recorded: inhibit plaque formation"},
      {"measurement": "syncytia formation", "setting": "RSV [2]; peptide 5 mg/ml added 20 or 24 hours post-adsorption, HEp-2, evaluated after three days", "value": "inhibited syncytia formation"},
      {"measurement": "number of virus infected cells", "setting": "RSV [2]; peptide 5 mg/ml added 4 hours after RSV adsorption, HEp-2, evaluated after three days", "value": "reduced the number of virus infected cells and limited infection to single cells"},
      {"measurement": "cell-to-cell spread of RSV", "setting": "RSV [2]; peptide added after RSV adsorption, HEp-2", "value": "inhibited"},
      {"measurement": "illness", "setting": "RSV [3]; [7]", "value": "no discernable illness"},
      {"measurement": "weight loss", "setting": "RSV [3]; [7]", "value": "no discernable illness or weight loss"},
      {"measurement": "signs of illness", "setting": "RSV [3]; [8]", "value": "markedly diminished"},
      {"measurement": "weight loss", "setting": "RSV [3]; [8]", "value": "slight reduction"},
      {"measurement": "inhibition of RSV in vivo", "setting": "RSV [3]; administered to mice", "value": "inhibited RSV in vivo"},
      {"measurement": "Day 5 RSV Titer (Log10 pfu/gram lung ± S.D.)", "setting": "RSV [3]; peptide treatment on day 0 (time of challenge), lung plaque assay", "value": "3.7 ± 0.3", "unit": "Log10 pfu/gram lung"},
      {"measurement": "Day 5 RSV Titer (Log10 pfu/gram lung ± S.D.)", "setting": "RSV [3]; peptide treatment on day 4, lung plaque assay", "value": "4.7 ± 0.3", "unit": "Log10 pfu/gram lung"},
      {"measurement": "decrease of RSV titers in lung", "setting": "RSV [3]; treatment at the time of infection, day 5 lungs", "value": "over 100 fold"},
      {"measurement": "reduction of RSV titers in lung", "setting": "RSV [3]; treatment on day 4, day 5 lungs", "value": "more than 10 fold"},
      {"measurement": "syncytium formation by PIV3", "setting": "[4]", "value": "inhibited"},
      {"measurement": "HIV virus entry into cells", "setting": "HIV", "value": "Inhibition"},
      {"measurement": "HIV-1 replication (RT and p24 assays)", "setting": "HIV-1", "value": "inhibited"},
      {"measurement": "HIV-1 virus entry into / infection of MT-2 cells", "setting": "HIV-1", "value": "inhibited"},
      {"measurement": "reverse transcriptase activity in culture supernatants", "setting": "HIV-1", "value": "undetectable"}
    ]},
    {"substance": "RhoA80-89: 10 amino acid peptide comprising amino acid residues 80-89 of the RhoA protein sequence (ILMCFSIDSP; UniProt P61586 80-89, looked up, fragment)", "values": [
      {"measurement": "RSV entry into HEp-2 cells", "setting": "RSV [2]; [6]", "value": "completely blocked"}
    ]},
    {"substance": "RhoA83-92: 10 amino acid peptide, RhoA residues 83-92 (CFSIDSPDSL; UniProt P61586 83-92, looked up, fragment)", "values": [
      {"measurement": "syncytium formation", "setting": "RSV [2]; [6]", "value": "did not block"}
    ]},
    {"substance": "RhoA87-105: 19 amino acid peptide comprising RhoA amino acids 87-105 (DSPDSLENIPEKWTPEVKH; UniProt P61586 87-105, looked up, fragment)", "values": [
      {"measurement": "plaque formation", "setting": "RSV [1]", "value": "no inhibition"},
      {"measurement": "destruction of infected MT-2 cells", "setting": "HIV-1", "value": "completely destroyed by day 14"},
      {"measurement": "syncytium formation by HIV-1", "setting": "HIV-1", "value": "visible syncytia by day 4"}
    ]},
    {"substance": "whole RhoA protein: whole RhoA protein, 193 amino acid small GTP-binding protein", "values": [
      {"measurement": "number and size of plaques", "setting": "RSV [5]", "value": "increased"}
    ]}
  ]
}
